From publication PMC5506657, “Improvement in phosphate acquisition and utilization by a secretory purple acid phosphatase (OsPAP21b) in rice” (Plant Biotechnology Journal, 2017)

What was measured:
OsPAP21b [1] = experiment: released Pi by vanadomolybdate; Lineweaver-Burk; type: biochemical, Oryza sativa; details: 5 mM MgCl2, 50 mM sodium acetate pH 5.0, 37 °C; 0.1-100 mM substrate
OsPAP21b [2] = details: 10 mM pNPP; 0 to 25 mM NaH2PO4; 5 mM MgCl2, 50 mM sodium acetate pH 5.0, 37 °C; reaction product as inhibitor

| Km (OsPAP21b [1]) | IC50 (OsPAP21b [2]) | SMILES |
| --- | --- | --- |
| 77 ± 4 µM | – | Nc1ncnc2c1ncn2[C@@H]1O[C@H](COP(=O)(O)OP(=O)(O)O)[C@@H](O)[C@H]1O [ADP] |
| – | 5.09 ± 1.34 mM | O=P(O)(O)O [Pi] |
| 90 ± 10 µM | – | O=[N+]([O-])c1ccc(OP(=O)(O)O)cc1 [pNPP] |
